Reference: US11708357B2, “Crystal form of pyrrolidinyl urea derivative and application thereof” (ZHANGZHOU PIEN TZE HUANG PHARMACEUTICAL CO., LTD., priority 2020, dated 2023)

Tests used:
Type in all cases: in vitro ADME
CYP1A2 = target: T1, CYP1A2 (Homo sapiens, UniProt P05177); assay: Cytochrome P450 isozyme inhibitory activity test, CYP1A2; conditions: liver microsomes; human liver microsome
T1 construct: from tissue; host or cells: human liver microsomes
T1 sequence (P05177 1-516): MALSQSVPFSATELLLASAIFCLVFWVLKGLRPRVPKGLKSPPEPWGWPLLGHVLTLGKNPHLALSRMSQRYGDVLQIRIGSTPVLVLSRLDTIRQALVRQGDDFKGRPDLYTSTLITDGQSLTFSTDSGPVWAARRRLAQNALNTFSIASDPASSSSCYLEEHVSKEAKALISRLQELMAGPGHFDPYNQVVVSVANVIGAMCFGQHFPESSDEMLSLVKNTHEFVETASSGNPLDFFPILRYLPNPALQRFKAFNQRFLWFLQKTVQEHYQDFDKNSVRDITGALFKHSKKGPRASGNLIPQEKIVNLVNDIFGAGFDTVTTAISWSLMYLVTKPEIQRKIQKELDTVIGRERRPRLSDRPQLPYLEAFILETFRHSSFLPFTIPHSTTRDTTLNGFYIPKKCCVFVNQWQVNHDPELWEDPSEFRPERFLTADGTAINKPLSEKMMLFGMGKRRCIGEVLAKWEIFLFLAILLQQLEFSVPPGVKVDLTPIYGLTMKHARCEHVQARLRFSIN
Description: (§1) The inhibitory activities of the test compound on different subtypes of human cytochrome P450 isozymes were determined. The test compound, standard inhibitor (100× final concentration), and a mixed substrate working solution were prepared; the microsome frozen in −80° C. refrigerator was thawed. […]

CYP2C19 = target: T2, CYP2C19 (Homo sapiens, UniProt P33261); assay: Cytochrome P450 isozyme inhibitory activity test, CYP2C19; conditions: liver microsomes; human liver microsome
T2 construct: from tissue; host or cells: human liver microsomes
Description: as §1

CYP2D6 = target: T3, CYP2D6 (Homo sapiens, UniProt P10635); assay: Cytochrome P450 isozyme inhibitory activity test, CYP2D6; conditions: liver microsomes; human liver microsome
T3 construct: from tissue; host or cells: human liver microsomes
Description: as §1

CYP3A4 = target: T4, CYP3A4 (Homo sapiens, UniProt P08684); assay: Cytochrome P450 isozyme inhibitory activity test, CYP3A4; conditions: liver microsomes; human liver microsome
T4 construct: from tissue; host or cells: human liver microsomes
Description: as §1

[1] = Metabolic stability in human liver microsomes; conditions: pH 7.4, 0.5 mg protein/mL, read-out: Intrinsic clearance rate of liver microsomes, Human
Description: (§2) The metabolic stability of the test compound in human and rat liver microsomes was tested.
(§3) Test compound (10 mM), Testosterone (reference compound, 10 mM), Diclofenac (reference compound, 10 mM) and Propafenone (reference compound, 10 mM).
(§4) 1. 100 mM potassium phosphate buffer (pH 7.4).
(§5) 1. Intermediate solution: 45 μL of DMSO (with 450 μL of 1:1 methanol/water) was used to dilute 5 μL of the sample for test compound or reference compound.
(§6) 2. Working solution: 450 μL of 100 mM potassium phosphate buffer was used to dilute the intermediate solution.
(§7) 10 μL of the working solution of the test compound or reference compound was added to all plates (T0, T5, T10, T20, T30, T60, and NCF60).
(§8) 680 μL of liver microsome solution was added to each well of 96-well plates, then 80 μL was added to each well of the plates, and the plates were placed at 37° C. for pre-incubation for approximately 10 minutes.
(§9) 10 μL of 100 mM potassium phosphate buffer was added to each well of the NCF60 plate.
(§10) After the pre-incubation, 90 μL NADPH regeneration system working solution was added to each well of the 96-well plates, and then 10 μL was added to each well of the plates to initiate the reaction.
(§11) Incubation for an appropriate time (such as 5, 10, 20, 30, and 60 minutes). […]
(§12) The half-life T1/2 and the intrinsic clearance rate by liver microsome Clint(mic) were calculated by the following formulas: Ct=Cij·e^−k^s^·i • when […]

[2] = Metabolic stability in rat liver microsomes; conditions: pH 7.4, 0.5 mg protein/mL, read-out: Intrinsic clearance rate of liver microsomes, Rat
Description: as §2, §3, §4, §5, §6, §7, §8, §9, §10, §11, §12

T4 sequence (P08684 whole entry): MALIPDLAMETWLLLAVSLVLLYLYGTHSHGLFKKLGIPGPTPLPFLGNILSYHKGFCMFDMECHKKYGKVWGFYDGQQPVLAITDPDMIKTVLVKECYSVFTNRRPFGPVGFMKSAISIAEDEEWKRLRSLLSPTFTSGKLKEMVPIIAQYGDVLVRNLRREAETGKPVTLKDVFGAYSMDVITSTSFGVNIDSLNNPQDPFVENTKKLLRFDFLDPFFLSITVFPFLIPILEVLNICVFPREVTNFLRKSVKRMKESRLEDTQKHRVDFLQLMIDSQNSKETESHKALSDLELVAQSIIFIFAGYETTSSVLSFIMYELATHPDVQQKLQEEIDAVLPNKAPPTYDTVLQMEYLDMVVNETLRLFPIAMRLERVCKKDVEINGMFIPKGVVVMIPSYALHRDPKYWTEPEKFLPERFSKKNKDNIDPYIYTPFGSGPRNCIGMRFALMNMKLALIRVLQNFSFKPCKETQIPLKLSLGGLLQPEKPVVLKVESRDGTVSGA
T3 sequence (P10635 whole entry): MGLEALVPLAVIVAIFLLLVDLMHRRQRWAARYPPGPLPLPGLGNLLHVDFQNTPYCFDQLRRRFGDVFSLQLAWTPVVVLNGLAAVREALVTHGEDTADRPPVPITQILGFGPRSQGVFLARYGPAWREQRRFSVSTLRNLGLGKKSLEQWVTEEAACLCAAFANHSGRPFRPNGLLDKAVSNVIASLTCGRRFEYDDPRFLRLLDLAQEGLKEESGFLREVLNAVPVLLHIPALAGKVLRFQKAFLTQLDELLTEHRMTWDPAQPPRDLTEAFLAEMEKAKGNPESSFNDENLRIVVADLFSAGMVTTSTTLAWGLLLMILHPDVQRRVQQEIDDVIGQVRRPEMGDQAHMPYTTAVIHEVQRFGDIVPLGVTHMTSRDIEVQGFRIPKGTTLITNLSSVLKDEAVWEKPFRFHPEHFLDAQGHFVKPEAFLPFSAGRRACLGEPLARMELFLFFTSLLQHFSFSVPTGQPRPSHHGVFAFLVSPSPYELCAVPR
T2 sequence (P33261 whole entry): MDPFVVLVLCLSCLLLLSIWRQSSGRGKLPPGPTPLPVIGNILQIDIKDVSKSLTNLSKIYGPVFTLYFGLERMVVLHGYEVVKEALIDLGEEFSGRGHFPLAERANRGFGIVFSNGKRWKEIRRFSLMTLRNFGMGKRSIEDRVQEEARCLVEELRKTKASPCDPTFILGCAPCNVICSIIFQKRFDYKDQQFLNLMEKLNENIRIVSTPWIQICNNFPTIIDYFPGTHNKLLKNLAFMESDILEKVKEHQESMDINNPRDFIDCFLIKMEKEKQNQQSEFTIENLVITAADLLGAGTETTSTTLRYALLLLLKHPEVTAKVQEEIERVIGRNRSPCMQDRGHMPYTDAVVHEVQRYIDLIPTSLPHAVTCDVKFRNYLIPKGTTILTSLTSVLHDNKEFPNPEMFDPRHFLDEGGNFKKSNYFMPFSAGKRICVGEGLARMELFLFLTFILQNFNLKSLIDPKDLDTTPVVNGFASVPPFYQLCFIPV

- IC50 at 10 min (CYP1A2): > 50 µM
- IC50 at 10 min (CYP2C19): > 50 µM
- IC50 at 10 min (CYP2D6): 40.6 µM
- IC50 at 10 min (CYP3A4): > 50 µM
- CLint scaled [1]: 51.7 mL/min/kg
- CLint scaled [2]: 24.9 mL/min/kg
Compound: COCCN1C[C@@H](n2ccc(F)c2)[C@H](NC(=O)Nc2c(C)c(-c3cnc(C4(F)COC4)nc3)nn2-c2ccccc2)C1 [Compound of formula (I)]
